Laboratory results reported in patent publication US20150335535A1, “DENTAL ADHESIVE” (DENTSPLY INTERNATIONAL INC., priority 2008, published 2015).

Experiment: Thermal stability of test formulation on storage at 60° C. until thermal polymerization
Type: physicochemical
Conditions: for sufficient thermal stability: inhibitor in test formulation; for thermal stability of formulation FBE-05.44.01: all columns dark shaded
Protocol: A series of test formulations containing different thermal polymerization inhibitors was prepared in order to illustrate the surprising thermal stability of a dental adhesive composition according to the present invention. Test formulations containing different inhibitors or inhibitor concentrations were stored in Prime&Bond NT bottles ([…]) at 60° C. until thermal polymerization. The bottles were daily examined by shaking the bottle, whereby the acoustical test turned out to be rather sensitive, and by taking a sample with a pipette. When polymerization seemed to have occurred or after a certain minimum storage time (20 days) the bottles were sliced open and the solution were examined visually. According to the results of the above described Arrhenius investigation at least a thermal stability of about 11 days at 60° C. is necessary so that the dental adhesive composition may be stored at room temperature. The Test Formulation containing different inhibitors in different amounts, was investigated regarding its thermal stability by storing these formulations at 60° C. The samples were daily examined. In case of polymerization a gel or a solid, polymerized body was observed. The dark shaded columns represent formulations with inhibitors, respectively inhibitor concentrations, which were polymerized after the depicted time at 60° C. The light shaded columns represent formulations, which were not polymerized until the depicted time. Usually after 20 days the investigation was terminated.

Which sufficient thermal stability (storage at 60° C.) does the source give for `Cc1cc(C(C)(C)C)c(O)c(C(C)(C)C)c1` [BHT, 2,6-di-tert.-butyl-p-cresol] here?
The sufficient thermal stability was “failed to provide a sufficient thermal stability”.

With `CC(C)(c1ccc(O)cc1)c1ccc(O)cc1` [Bisphenol A] as the compound, how does the “thermal stability of formulation FBE-05.44.01” value (storage at 60° C.) read?
Its value is “polymerized after the recorded time”.

Which stabilization effect (inhibitor 0.15 mol % in test formulation, storage at 60° C.) does the source give for `Oc1ccc(O)cc1` [HQ, hydroquinone] here?
The stabilization effect was “some stabilization effect”.

With `COc1ccc(O)cc1` [HQME, hydroquinone monomethylether] as the compound, how does the “visual examination after slicing open the bottle” value (0.49 mol % inhibitor in FBE-05.44.01, storage at 60° C.) read?
Its value is “small pieces of gel were found at the bottom”.

And the “visual examination after slicing open the bottle” value (0.697 mol % inhibitor in FBE-05.44.01, storage at 60° C.)?
Its value is “small pieces of gel were found at the bottom”.

And the sufficient thermal stability (storage at 60° C.)?
Its sufficient thermal stability is “failed to provide a sufficient thermal stability”.

With `CCCOC(=O)c1cc(O)c(O)c(O)c1` [PG, Propyl gallate] as the compound, how does the “thermal stability of formulation FBE-05.44.01” value (storage at 60° C.) read?
Its value is “polymerized after the recorded time”.

With `CC(C)(C)c1ccc(O)c(O)c1` [TBC] as the compound, how does the “visual examination after slicing open the bottle” value (0.193 mol % inhibitor, storage at 60° C.) read?
Its value is “some pieces of gel were found at the bottom”.

Which “visual examination after slicing open the bottles” value (0.013 mol % inhibitor, after 20 days at 60° C.) does the source give for `CC(C)(C)c1cc(O)ccc1O` [TBHQ, tert-Butylhydroquinone] here?
The value was “polymerization was found”.

What about the “visual examination after slicing open the bottles” value (after 14 days and after 20 days at 60° C., FBE-05.44.01) of the same compound?
Its value is “No hints of a polymerization were found”.

Which “visual examination after slicing open the bottles” value (0.047 mol % inhibitor, after 14 days at 60° C.) does the source give for `COc1ccc(O)c(C(C)(C)C)c1` [tert.-Butylhydroxyanisole, tert.-Butylhydroxyanisol] here?
Its value is “some pieces of gel”.

And the “visual examination after slicing open the bottles” value (0.047 mol % inhibitor, after 20 days at 60° C.)?
The value was “some small pieces of gel”.

And the “visual examination after slicing open the bottles” value (0.096 mol % inhibitor, after 20 days at 60° C.)?
The value was “No indication of polymerization”.

And the “visual examination after slicing open the bottles” value (0.147 mol % inhibitor, after 20 days at 60° C.)?
The value was “No indication of polymerization”.
